In US20250312352A1, “GLP-1R MODULATING COMPOUNDS” (Gilead Sciences, Inc., priority 2021, published 2025):

Molecular target: T1, GLP-1R (Homo sapiens, UniProt P43220)
T1 construct: host or cells: CHO cells
Test: GLP-1R activation cAMP assay (Assay 1 or Assay 2)
Format: cell-based
Details: cAMP increase in CHO cells stably expressing GLP-1R; compounds run on one of the two cAMP assays
Outline: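 CHO cells stably expressing human GLP-1R were incubated 1 h in HBSS/20 mM HEPES/0.1% BSA, then exposed to 10-point agonist dilutions for 30 min at 37 °C. cAMP increase was measured with an HTRF Gs dynamic kit; EC50 from sigmoidal fit of response versus log concentration.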

T1 sequence (P43220 24-463): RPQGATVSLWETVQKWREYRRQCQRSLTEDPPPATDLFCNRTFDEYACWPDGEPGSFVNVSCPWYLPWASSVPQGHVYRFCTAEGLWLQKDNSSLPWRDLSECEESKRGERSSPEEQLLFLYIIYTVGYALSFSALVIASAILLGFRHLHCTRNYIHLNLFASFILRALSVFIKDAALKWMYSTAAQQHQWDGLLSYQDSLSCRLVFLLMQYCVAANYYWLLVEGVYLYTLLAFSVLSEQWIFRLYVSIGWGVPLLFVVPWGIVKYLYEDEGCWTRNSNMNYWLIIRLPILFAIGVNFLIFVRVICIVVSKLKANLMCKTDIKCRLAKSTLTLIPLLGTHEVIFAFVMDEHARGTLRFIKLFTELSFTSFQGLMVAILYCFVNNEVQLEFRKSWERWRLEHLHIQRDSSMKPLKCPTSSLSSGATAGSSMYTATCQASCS

Molecule | EC50 [nM]
NC(=O)c1cc(COc2cccc(-c3cc(F)c(Cc4nc5ccc(C(=O)O)cc5n4C[C@@H]4CCO4)cc3F)n2)cs1 [Example 129, (S)-2-(4-(6-((5-carbamoylthiophen-3-yl)methoxy)pyridin-2-yl)-2,5-difluorobenzyl)-1-(oxetan-2-ylmethyl)-1H-benzo[d]imidazole-6-carboxylic acid] | 3.17
N#Cc1ccc(COc2cccc(-c3cc(F)c(Cc4nc5ccc(C(=O)O)cc5n4C[C@@H]4CCO4)cc3F)n2)o1 [Example 14, (S)-2-(4-(6-((5-cyanofuran-2-yl)methoxy)pyridin-2-yl)-2,5-difluorobenzyl)-1-(oxetan-2-ylmethyl)-1H-benzo[d]imidazole-6-carboxylic acid] | 5.68
Cc1nc(COc2cccc(-c3cc(F)c(Cc4nc5ccc(C(=O)O)cc5n4C[C@@H]4CCO4)cc3F)n2)cn1C(F)F [Example 180, (S)-2-(4-(6-((1-(difluoromethyl)-2-methyl-1H-imidazol-4-yl)methoxy)pyridin-2-yl)-2,5-difluorobenzyl)-1-(oxetan-2-ylmethyl)-1H-benzo[d]imidazole-6-carboxylic acid] | 28
O=C(O)c1ccc2nc(Cc3cc(F)c(-c4cccc(OCc5ccn(C6COC6)n5)n4)cc3F)n(C[C@@H]3CCO3)c2c1 [Example 10, (S)-2-(2,5-difluoro-4-(6-((1-(oxetan-3-yl)-1H-pyrazol-3-yl)methoxy)pyridin-2-yl)benzyl)-1-(oxetan-2-ylmethyl)-1H-benzo[d]imidazole-6-carboxylic acid] | 7.55
CNC(=O)c1cc(Cl)c(COc2cccc(-c3cc(F)c(Cc4nc5ccc(C(=O)O)cc5n4C[C@@H]4CCO4)cc3F)n2)cn1 [Example 46, (S)-2-(4-(6-((4-chloro-6-(methylcarbamoyl)pyridin-3-yl)methoxy)pyridin-2-yl)-2,5-difluorobenzyl)-1-(oxetan-2-ylmethyl)-1H-benzo[d]imidazole-6-carboxylic acid] | 0.14
O=C(O)c1ccc2nc(Cc3cc(F)c(-c4cccc(OCc5cn6ccccc6n5)n4)cc3F)n(C[C@@H]3CCO3)c2c1 [Example 30, (S)-2-(2,5-difluoro-4-(6-(imidazo[1,2-a]pyridin-2-ylmethoxy)pyridin-2-yl)benzyl)-1-(oxetan-2-ylmethyl)-1H-benzo[d]imidazole-6-carboxylic acid] | 1.99
Cc1cc(Cc2nc3c(F)cc(C(=O)O)cc3n2C[C@@H]2CCO2)c(F)cc1-c1cccc(OCc2cnc(-c3cnn(C4CC4)c3)cc2Cl)n1 [Example 163, (S)-2-(4-(6-((4-chloro-6-(1-cyclopropyl-1H-pyrazol-4-yl)pyridin-3-yl)methoxy)pyridin-2-yl)-2-fluoro-5-methylbenzyl)-4-fluoro-1-(oxetan-2-ylmethyl)-1H-benzo[d]imidazole-6-carboxylic acid] | 0.7
O=C(O)c1ccc2nc(Cc3cc(F)c(-c4cccc(OCc5nc6cccnc6s5)n4)cc3F)n(C[C@@H]3CCO3)c2c1 [Example 26, (S)-2-(2,5-difluoro-4-(6-(thiazolo[5,4-b]pyridin-2-ylmethoxy)pyridin-2-yl)benzyl)-1-(oxetan-2-ylmethyl)-1H-benzo[d]imidazole-6-carboxylic acid] | 0.23
2-(4-(6-((5-chlorothiazol-2-yl)methoxy)pyridin-2-yl)-2,5-difluorobenzyl)-1-((1-(fluoromethyl)cyclopropyl)methyl)-1H-benzo[d]imidazole-6-carboxylic acid [Example 269] | 0.748
2-(4-(6-((5-(difluoromethyl)thiazol-2-yl)methoxy)pyridin-2-yl)-2,5-difluorobenzyl)-4-fluoro-1-((1-(fluoromethyl)cyclopropyl)methyl)-1H-benzo[d]imidazole-6-carboxylic acid [Example 413] | 0.36
O=C(O)c1ccc2nc(Cc3cc(F)c(-c4cccc(OCc5nnc(-c6cnn(C(F)F)c6)s5)n4)cc3F)n(C[C@@H]3CCO3)c2c1 [Example 92, (S)-2-(4-(6-((5-(1-(difluoromethyl)-1H-pyrazol-4-yl)-1,3,4-thiadiazol-2-yl)methoxy)pyridin-2-yl)-2,5-difluorobenzyl)-1-(oxetan-2-ylmethyl)-1H-benzo[d]imidazole-6-carboxylic acid] | 0.07
Cn1cc(C#Cc2ccc(COc3cccc(-c4cc(F)c(Cc5nc6ccc(C(=O)O)cc6n5C[C@@H]5CCO5)cc4F)n3)c(F)c2)cn1 [Example 132, (S)-2-(2,5-difluoro-4-(6-((2-fluoro-4-((1-methyl-1H-pyrazol-4-yl)ethynyl)benzyl)oxy)pyridin-2-yl)benzyl)-1-(oxetan-2-ylmethyl)-1H-benzo[d]imidazole-6-carboxylic acid] | 0.17
O=C(O)c1ccc2nc(Cc3cc(F)c(-c4cccc(OCc5ncc(OCC(F)(F)F)s5)n4)cc3F)n(C[C@@H]3CCO3)c2c1 [Example 57, (S)-2-(2,5-difluoro-4-(6-((5-(2,2,2-trifluoroethoxy)thiazol-2-yl)methoxy)pyridin-2-yl)benzyl)-1-(oxetan-2-ylmethyl)-1H-benzo[d]imidazole-6-carboxylic acid] | 0.73
O=C(O)c1ccc2nc(Cc3cc(F)c(-c4cccc(OCc5ccc(-c6cn(C7CCOCC7)nn6)cc5F)n4)cc3F)n(C[C@@H]3CCO3)c2c1 [Example 218, (S)-2-(2,5-difluoro-4-(6-((2-fluoro-4-(1-(tetrahydro-2H-pyran-4-yl)-1H-1,2,3-triazol-4-yl)benzyl)oxy)pyridin-2-yl)benzyl)-1-(oxetan-2-ylmethyl)-1H-benzo[d]imidazole-6-carboxylic acid] | 0.8
O=C(O)c1ccc2nc(Cc3cc(F)c(-c4cccc(OCc5ncc(Cl)s5)n4)cc3F)n(C[C@@H]3CCO3)c2c1 [Example 47, (S)-2-(4-(6-((5-chlorothiazol-2-yl)methoxy)pyridin-2-yl)-2,5-difluorobenzyl)-1-(oxetan-2-ylmethyl)-1H-benzo[d]imidazole-6-carboxylic acid] | 0.09

Continued, values first:

EC50 [nM] | Molecule
0.096 | O=C(O)c1ccc2nc(Cc3cc(F)c(-c4cccc(OCc5ccc(C#Cc6cnc(Cl)nc6)cc5)n4)cc3F)n(C[C@@H]3CCO3)c2c1 [Example 403, (S)-2-(4-(6-((4-((2-chloropyrimidin-5-yl)ethynyl)benzyl)oxy)pyridin-2-yl)-2,5-difluorobenzyl)-1-(oxetan-2-ylmethyl)-1H-benzo[d]imidazole-6-carboxylic acid]
0.56 | Cn1ccc(CNC(=O)c2cc(Cl)c(COc3cccc(-c4cc(F)c(Cc5nc6ccc(C(=O)O)cc6n5C[C@@H]5CCO5)cc4F)n3)cn2)n1 [Example 366, (S)-2-(4-(6-((4-chloro-6-(((1-methyl-1H-pyrazol-3-yl)methyl)carbamoyl)pyridin-3-yl)methoxy)pyridin-2-yl)-2,5-difluorobenzyl)-1-(oxetan-2-ylmethyl)-1H-benzo[d]imidazole-6-carboxylic acid]
0.508 | Cc1nnc(COc2nc(-c3cc(F)c(Cc4nc5c(F)cc(C(=O)O)cc5n4C[C@@H]4CCO4)cc3F)ccc2F)s1 [Example 297, (S)-2-(2,5-difluoro-4-(5-fluoro-6-((5-methyl-1,3,4-thiadiazol-2-yl)methoxy)pyridin-2-yl)benzyl)-4-fluoro-1-(oxetan-2-ylmethyl)-1H-benzo[d]imidazole-6-carboxylic acid]
0.499 | O=C(O)c1ccc2nc(Cc3cc(F)c(-c4cccc(OCc5ncc(C#Cc6cscn6)cc5F)n4)cc3F)n(C[C@@H]3CCO3)c2c1 [Example 292, (S)-2-(2,5-difluoro-4-(6-((3-fluoro-5-(thiazol-4-ylethynyl)pyridin-2-yl)methoxy)pyridin-2-yl)benzyl)-1-(oxetan-2-ylmethyl)-1H-benzo[d]imidazole-6-carboxylic acid]
0.764 | COCCn1c(Cc2cc(F)c(-c3cccc(OCc4nnc(OC)s4)n3)cc2Cl)nc2c(F)cc(C(=O)O)cc21 [Example 315, 2-(2-chloro-5-fluoro-4-(6-((5-methoxy-1,3,4-thiadiazol-2-yl)methoxy)pyridin-2-yl)benzyl)-4-fluoro-1-(2-methoxyethyl)-1H-benzo[d]imidazole-6-carboxylic acid]
0.381 | O=C(O)c1cc(F)c2nc(Cc3cc(F)c(-c4ccnc(OCc5ncc(C(F)(F)F)s5)n4)cc3F)n(C[C@@H]3CCO3)c2c1 [Example 408, (S)-2-(2,5-difluoro-4-(2-((5-(trifluoromethyl)thiazol-2-yl)methoxy)pyrimidin-4-yl)benzyl)-4-fluoro-1-(oxetan-2-ylmethyl)-1H-benzo[d]imidazole-6-carboxylic acid]
0.202 | O=C(O)c1ccc2nc(Cc3cc(F)c(-c4cccc(OCc5ncc(C#CC6(C(F)(F)F)CC6)s5)n4)cc3F)n(C[C@@H]3CCO3)c2c1 [Example 335, (S)-2-(2,5-difluoro-4-(6-((5-((1-(trifluoromethyl)cyclopropyl)ethynyl)thiazol-2-yl)methoxy)pyridin-2-yl)benzyl)-1-(oxetan-2-ylmethyl)-1H-benzo[d]imidazole-6-carboxylic acid]
0.087 | COc1nnc(COc2cccc(-c3cc(Cl)c(Cc4nc5ccc(C(=O)O)cc5n4[C@@H]4COCC4(C)C)cc3F)n2)s1 [Example 434, (S)-2-(2-chloro-5-fluoro-4-(6-((5-methoxy-1,3,4-thiadiazol-2-yl)methoxy)pyridin-2-yl)benzyl)-1-(4,4-dimethyltetrahydrofuran-3-yl)-1H-benzo[d]imidazole-6-carboxylic acid]
0.683 | Cc1nnc(COc2cccc(-c3cc(F)c(Cc4nc5ccc(C(=O)O)cc5n4C[C@@H]4CCO4)cc3F)n2)s1 [Example 308, (S)-2-(2,5-difluoro-4-(6-((5-methyl-1,3,4-thiadiazol-2-yl)methoxy)pyridin-2-yl)benzyl)-1-(oxetan-2-ylmethyl)-1H-benzo[d]imidazole-6-carboxylic acid]
0.929 | Cc1c(C#Cc2ccc(COc3cccc(-c4cc(F)c(Cc5nc6ccc(C(=O)O)cc6n5C[C@@H]5CCO5)cc4F)n3)c(F)c2)cnn1C [Example 364, (S)-2-(4-(6-((4-((1,5-dimethyl-1H-pyrazol-4-yl)ethynyl)-2-fluorobenzyl)oxy)pyridin-2-yl)-2,5-difluorobenzyl)-1-(oxetan-2-ylmethyl)-1H-benzo[d]imidazole-6-carboxylic acid]
